Where two headings read alike, the source gives them in different places. Blank lines part the entries; values can stand above or below the molecule they belong to.
Experiments:
papulopustular rosacea = details: cited from earlier work; for IGA = Clear/Almost Clear / Inflammatory Lesions: Mean Absolute Reduction / ≥2 IGA Grade Reduction: Week 16
[1] = for Compatibility with Minocycline HCl: tested after the storage for up to 3 weeks; for Effect of anti-oxidant on oxidation of Minocycline HCl: waterless medium of propylene glycol and PEG 200
Experimental: The ratio between MCH and the tested excipient is detailed below. Visual inspection was the major criterion for indication of compatibility. The color of intact MCH suspension is pale yellow; and any change of color (e.g., to dark orange, red, green, brown and black) indicates oxidation or degradation.
Other than hydrogenated castor oil, beeswax, paraffin and hard fat, the aforesaid items listed are oily emollients.
Additives were tested for compatibility with MCH. […] In parallel, antioxidants were added to the MCH suspensions comprising water.

[2] = Doxycycline Hyclate Compatibility Test; type: physicochemical; details: for Compatibility with Doxycycline Hyclate: tested after the storage for up to 3 weeks; for Effect of anti-oxidant on oxidation of Doxycycline Hyclate: waterless medium of propylene glycol and PEG 200
Experimental: (§1) A similar compatibility study was conducted for Doxycycline Hyclate and Doxycycline Monohydrate.
(§2) Different compositions of hydrophilic and hydrophobic solvents containing Doxycycline Hyclate (Set I and Set II) and Doxycycline Monohydrate (Set III) were prepared by weighing the antibiotic in a glass vial and shaking overnight with each solvent investigated.
Group II included Doxycycline Hyclate mixed with various vehicles with addition of antioxidants like alpha tocopherol, butylated hydroxytoluene (BHT), and ascorbic acid.

[3] = Doxycycline Monohydrate Compatibility Test; type: physicochemical; details: tested after the storage for up to 3 weeks
Experimental: as §1, §2
A similar compatibility test was performed on another form of Doxycycline—Doxycycline Monohydrate.

[4] = Phase I PK study in adults with acne: topical minocycline foam 4% for 21 days vs single oral dose of minocycline (FX2014-03); type: in vivo, human; details: Period 1, single oral dose ~1 mg/kg minocycline, Day 1-5; for AUC(0-inf) / AUC / Cmax / half-life / Tmax: both sexes, human, plasma, po, 1 mg/kg
Experimental: Each application was approximately 4 g (a maximal-use dose). […] On the day of initial dosing (Day 1), subjects checked into the clinic where they were confined until 1 hour after study drug was administered. Predose clinical assessments were performed and a 1 mL blood sample for PK analysis was obtained before study drug was administered.
SUBJECTS: Adults were eligible for this study if they were 18 to 35 years of age; children were eligible for the pediatric study if they were 9 to 16 years and 11 months of age and in good health, as judged on the basis of their medical history and the screening procedures. They were required to have moderate-to-severe facial acne vulgaris as well as acne affecting at least two additional regions of the body (neck, upper chest, upper back, or arms).
On days 6, 9, 10, 11, and 16, blood samples were obtained at approximately 30 minutes before the scheduled application. […] After the final application, subjects were asked to return for additional blood sampling on days 23, 24, and 25.
BIOANALYTICAL METHODS: Blood samples were collected and centrifuged, and the separated plasma was stored at approximately −70° C.
Actual sample collection times were used for the purpose of calculating pharmacokinetic parameters. […] Geometric mean was calculated for Cmax, AUC0-tldc, AUC0-inf, and AUC0-tau, and the harmonic mean was calculated for t1/2. Analysis of multiple-dose accumulation, determination of steady state, and other pertinent comparisons of pharmacokinetic parameters across or between doses were performed using the appropriate statistical methods. […] The CIs were expressed as a percentage relative to the LSM of the reference treatment.

[5] = Doxycycline Monohydrate Compatibility Test; type: physicochemical; details: waterless medium of propylene glycol and PEG 200
[6] = foam adjuvants, MCH:excipient 1:50
[7] = oily emollients, MCH:excipient 1:250, 25° C. and 40° C., maximum sixty days
[8] = surfactants solubilized in mineral oil, MCH:excipient 1:50

Molecule: C[C@H]1c2cccc(O)c2C(=O)C2=C(O)[C@]3(O)C(=O)C(C(N)=O)=C(O)[C@@H](N(C)C)[C@@H]3[C@@H](O)[C@@H]21 [Oracea]
Baseline IGA Moderate (papulopustular rosacea; Study 1, Active): 52.8%
Baseline IGA Severe (papulopustular rosacea; Study 1, Active): 40.9%
Inflammatory Lesions: Baseline No. of lesions (papulopustular rosacea; Study 1, Active): 19.5
Baseline IGA Moderate (papulopustular rosacea; Study 2, Active): 54.2%
Baseline IGA Severe (papulopustular rosacea; Study 2, Active): 33.8%
Inflammatory Lesions: Baseline No. of lesions (papulopustular rosacea; Study 2, Active): 20.5
IGA = Clear/Almost Clear (papulopustular rosacea; Study 1, Active): 30.7%
Inflammatory Lesions: Mean Absolute Reduction (papulopustular rosacea; Study 1, Active): −11.8
≥2 IGA Grade Reduction (papulopustular rosacea; Study 1, Active): 45.7%
IGA = Clear/Almost Clear (papulopustular rosacea; Study 2, Active): 14.8%
Inflammatory Lesions: Mean Absolute Reduction (papulopustular rosacea; Study 2, Active): −9.5
≥2 IGA Grade Reduction (papulopustular rosacea; Study 2, Active): 22.5%

Molecule: CCCCCCCCCCCCCCCC(=O)O [Palmitic acid]
Compatibility with MCH [1, 6]: compatible

Molecule: CC(O)CO (stereo not drawn) [Propylene glycol]
Compatibility with MCH ([1]; hydrophilic solvents, MCH:excipient 1:250, 25° C. and 40° C., maximum sixty days): incompatible
Compatibility with Minocycline HCl [1]: No
Compatibility with Doxycycline Hyclate [2]: No
Compatibility with Doxycycline Monohydrate [3]: No

Molecule: BHA/BHT
Effect of antioxidant on MCH degradation [1]: did not prevent MCH degradation

Molecule: Cyclomethicone
Compatibility with MCH [1, 7]: compatible

Molecule: SPAN 40
Compatibility with MCH [1, 8]: incompatible

Molecule: SPAN 60
Compatibility with MCH [1, 8]: incompatible

Molecule: SPAN 80
Compatibility with MCH [1, 8]: incompatible

The next lines start with the values.

kel, Mean [4]: 0.044 h⁻¹
kel, Median [4]: 0.04 h⁻¹
AUC(0-inf) ([4]; read-out: AUC0-inf, Geometric Mean): 15100 ng·h/mL
AUC(0-inf) ([4]; read-out: AUC0-inf, Mean): 15500 ng·h/mL
AUC(0-inf) ([4]; read-out: AUC0-inf, Median): 15600 ng·h/mL
AUC ([4]; read-out: AUC0-tldc, Geometric Mean): 14800 ng·h/mL
AUC ([4]; read-out: AUC0-tldc, Mean): 15200 ng·h/mL
AUC ([4]; read-out: AUC0-tldc, Median): 15400 ng·h/mL
Cmax ([4]; read-out: Cmax, Geometric Mean): 850 ng/mL
Cmax ([4]; read-out: Cmax, Mean): 873 ng/mL
Cmax ([4]; read-out: Cmax, Median): 801 ng/mL
half-life ([4]; read-out: T1/2, Harmonic Mean (converted)): 948 min
half-life ([4]; read-out: T1/2, Mean (converted)): 960 min
half-life ([4]; read-out: T1/2, Median (converted)): 954 min
Tmax ([4]; read-out: Tmax, Mean): 2.7 h
Tmax ([4]; read-out: Tmax, Median): 3 h
Molecule: CN(C)c1ccc(O)c2c1C[C@H]1C[C@H]3[C@H](N(C)C)C(O)=C(C(N)=O)C(=O)[C@@]3(O)C(O)=C1C2=O [Solodyn]

Compatibility with MCH [1, 6]: compatible
Molecule: CCCCCCCCCCCCCCCCCC(=O)O [Stearic acid]

Compatibility with MCH [1, 6]: compatible
Compatibility with Minocycline HCl [1]: Yes
Compatibility with Doxycycline Hyclate [2]: Yes
Molecule: CCCCCCCCCCCCCCCCCCO [Stearyl alcohol]

Effect of antioxidant on MCH degradation [1]: did not prevent MCH degradation
Effect of anti-oxidant on oxidation of Minocycline HCl [1]: did not prevent the oxidation
Effect of anti-oxidant on oxidation of Doxycycline Monohydrate [5]: did not prevent the oxidation
Effect of anti-oxidant on oxidation of Doxycycline Hyclate [2]: did not prevent the oxidation
Molecule: Cc1c(C)c2c(c(C)c1O)CC[C@@](C)(CCC[C@H](C)CCC[C@H](C)CCCC(C)C)O2 [alpha-tocopherol]

Effect of anti-oxidant on oxidation of Minocycline HCl [1]: did not prevent the oxidation
Effect of anti-oxidant on oxidation of Doxycycline Monohydrate [5]: did not prevent the oxidation
Effect of anti-oxidant on oxidation of Doxycycline Hyclate [2]: did not prevent the oxidation
Molecule: O=C1O[C@H]([C@@H](O)CO)C(O)=C1O [ascorbic acid]

Compatibility with MCH [1, 7]: compatible
Compatibility with Minocycline HCl [1]: Yes
Compatibility with Doxycycline Hyclate [2]: Yes
Compatibility with Doxycycline Monohydrate [3]: No
Molecule: CC(C)OC(=O)CCCCC(=O)OC(C)C [diisopropyl adipate]

Effect of antioxidant on MCH degradation [1]: did not prevent MCH degradation
Molecule: CCCOC(=O)c1cc(O)c(O)c(O)c1 [propyl gallate]

Compatibility with Minocycline HCl [1]: No
Compatibility with Doxycycline Hyclate [2]: No
Compatibility with Doxycycline Monohydrate [3]: No
Molecule: Sorbitan Monolaurate

Compatibility with Minocycline HCl [1]: Yes
Compatibility with Doxycycline Hyclate [2]: Yes
Molecule: Sorbitan Monostearate

Compatibility with MCH [1, 8]: incompatible
Molecule: Sorbitan sesquistearate

Reference: US10849847B2, “Compositions and methods for treating rosacea and acne” (Foamix Pharmaceuticals Ltd., priority 2016, dated 2020)
